pIC50: −log10 of the molar value. Read-outs that look alike come from different tables or passages of the source.
How the values were obtained:
[1] = tested on: OVCAR-3 cells; test: Inhibition of OVCAR-3 cell proliferation (CellTiter-Glo cell viability); format: cell-based; conditions: Homo sapiens
Protocol: (§1) Influences of the compounds of the present invention on OVCAR-3 cell proliferation were determined by the following method. OVCAR-3 cells (containing TP53 R248Q mutation) were purchased from the Cell Bank of Shanghai Institute of Biochemistry and Cell Biology, Chinese Academy of Sciences, and cultured in an RPMI 1640 culture medium containing 10% fetal bovine serum, 100 U penicillin and 100 µg/mL streptomycin. A cell viability was determined by a CellTiter-Glo® Luminescent Cell Viability Assay kit (Promega, article number G7573).
(§2) An experimental method was operated according to steps in the instruction of the kit, which was briefly described as follows: a test compound was dissolved in DMSO first to prepare a 10 mM stock solution, then the stock solution was diluted with the culture medium to prepare a test sample, and a final concentration of the compound was in a range of 1000 nM-0.015 nM. Cells in a logarithmic growth phase were inoculated into a 96-well cell culture plate at a density of 1000 cells per well, cultured in a 5% CO2 incubator at 37°C overnight, and then the test compound was added to continuously culture for 72 hours. After the culture was ended, 50 uL of CellTiter-Glo detection solution was added to each well , shaken for 5 minutes, and then allowed to stand for 10 minutes, and subsequently, a luminance value of each well of the sample was read by a microplate reader in a Luminescence mode. By comparing with the numerical value of a control group (0.3% DMSO), a percentage inhibition rate of the compound at each concentration point was calculated, and then nonlinear regression analysis was carried out based on concentration logarithm-inhibition rate of the compound in GraphPad Prism 5 software, so as to obtain an IC50 value of the compound for inhibiting the cell proliferation, which was as shown in Table 1. Table 1 IC50 data of the compounds of the present invention for inhibiting OVCAR-3 cell proliferation

[2] = target: T1, recombinant human KIF18A (Homo sapiens, UniProt Q8NI77); test: Inhibition of KIF18A enzyme activity (ADP-Glo assay); format: biochemical; conditions: recombinant human KIF18A 100 nM, ATP 60 µM, tubulin, paclitaxel
T1 construct: purchased GenScript
T1 sequence (Q8NI77 whole entry): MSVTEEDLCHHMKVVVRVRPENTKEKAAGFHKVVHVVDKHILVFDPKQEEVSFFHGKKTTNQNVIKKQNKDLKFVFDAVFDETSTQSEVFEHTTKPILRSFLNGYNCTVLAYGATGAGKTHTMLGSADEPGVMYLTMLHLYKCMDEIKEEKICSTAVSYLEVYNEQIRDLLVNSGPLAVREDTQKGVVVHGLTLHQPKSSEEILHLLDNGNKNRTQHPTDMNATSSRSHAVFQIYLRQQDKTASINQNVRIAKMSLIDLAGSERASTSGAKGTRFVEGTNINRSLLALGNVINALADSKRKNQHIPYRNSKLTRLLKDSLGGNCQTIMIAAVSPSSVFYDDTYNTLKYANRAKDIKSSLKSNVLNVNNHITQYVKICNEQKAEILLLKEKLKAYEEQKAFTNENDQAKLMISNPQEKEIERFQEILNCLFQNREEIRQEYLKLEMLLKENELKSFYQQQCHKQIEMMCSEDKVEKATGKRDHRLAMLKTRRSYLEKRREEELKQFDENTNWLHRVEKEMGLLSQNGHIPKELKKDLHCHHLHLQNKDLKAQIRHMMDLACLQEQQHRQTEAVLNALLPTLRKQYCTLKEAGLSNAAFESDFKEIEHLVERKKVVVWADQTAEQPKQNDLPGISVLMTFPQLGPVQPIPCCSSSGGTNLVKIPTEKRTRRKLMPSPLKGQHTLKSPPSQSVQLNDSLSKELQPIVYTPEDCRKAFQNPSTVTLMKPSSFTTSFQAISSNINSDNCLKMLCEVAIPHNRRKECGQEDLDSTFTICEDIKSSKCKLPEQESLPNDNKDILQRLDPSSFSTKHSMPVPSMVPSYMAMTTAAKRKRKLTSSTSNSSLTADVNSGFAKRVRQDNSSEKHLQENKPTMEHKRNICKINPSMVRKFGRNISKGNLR
T1 sequence (P68363 whole entry partner): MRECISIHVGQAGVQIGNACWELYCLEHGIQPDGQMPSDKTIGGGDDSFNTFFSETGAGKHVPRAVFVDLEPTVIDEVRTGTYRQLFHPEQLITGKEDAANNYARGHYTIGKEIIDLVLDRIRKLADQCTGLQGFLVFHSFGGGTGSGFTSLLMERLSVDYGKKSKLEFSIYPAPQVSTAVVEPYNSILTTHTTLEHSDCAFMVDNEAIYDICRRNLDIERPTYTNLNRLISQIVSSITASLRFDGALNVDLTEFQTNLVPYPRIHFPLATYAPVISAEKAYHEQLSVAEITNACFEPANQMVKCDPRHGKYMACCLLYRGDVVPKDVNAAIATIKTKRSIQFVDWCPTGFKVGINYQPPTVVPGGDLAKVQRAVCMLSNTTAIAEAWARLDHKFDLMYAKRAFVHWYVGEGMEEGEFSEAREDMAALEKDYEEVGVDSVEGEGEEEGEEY
T1 sequence (Q9BVA1 whole entry partner): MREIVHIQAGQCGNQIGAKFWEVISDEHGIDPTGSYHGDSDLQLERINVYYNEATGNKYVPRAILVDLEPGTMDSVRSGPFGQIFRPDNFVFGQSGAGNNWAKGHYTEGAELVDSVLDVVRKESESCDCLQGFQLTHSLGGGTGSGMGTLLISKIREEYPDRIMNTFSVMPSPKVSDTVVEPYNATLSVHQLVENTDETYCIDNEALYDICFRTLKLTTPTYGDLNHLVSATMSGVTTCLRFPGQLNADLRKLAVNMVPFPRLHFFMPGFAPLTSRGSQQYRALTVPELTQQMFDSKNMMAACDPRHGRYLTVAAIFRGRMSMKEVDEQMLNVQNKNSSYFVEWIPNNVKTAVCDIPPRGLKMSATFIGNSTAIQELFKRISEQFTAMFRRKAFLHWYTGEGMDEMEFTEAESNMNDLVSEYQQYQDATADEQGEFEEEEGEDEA
Protocol: Inhibition degrees of the compounds of the present invention on recombinant human KIF18A enzyme activity in vitro were determined by the following method. An ADP-Glo™ Kinase Assay kit (article number V9102) from Promega Company was used in this method. Detailed experimental operation referred to the instruction of the kit.
An experimental process was briefly described as follows: a test compound was dissolved in DMSO first to prepare a stock solution, then the stock solution was gradiently diluted with a reaction buffer A ([…], 0.01% Pluronic F-68), and a final concentration of the test compound in the reaction system was in a range of 10000 nM-0.15 nM; and a KIF18A protein and ATP working solution was prepared by using a reaction buffer B (15 mM Tris, pH 7.5, 10 mM MgCl2, 0.01% Pluronic F-68, 37.5 µg/ml tubulin, 1.25 µM paclitaxel). The reaction was carried out in a 384-well microplate. The test compound and the recombinant human KIF18A protein (final concentration of 100 nM, entrusted to GenScript for expression) were added into the wells and incubated at room temperature for 20 minutes, and subsequently, an ATP solution (component V915A from the ADP-Glo™ Kinase Assay kit, final concentration of 60 µM) was added to the reaction solution and the system was incubated at room temperature for 20 minutes. Subsequently, 5 µL of ADP-Glo Reagent was added to the reaction systemand the system was incubated at room temperature for 50 minutes. Then, 10 µL of Kinase Detection Reagent was added to the reaction system and the system was incubated at room temperature for 30 minutes. After the incubation was ended, a chemiluminiscence intensity value of each well was determined by a microplate reader in a Luminescence mode.

[3] = tested on: HT-29 cells; test: Inhibition of HT-29 cell proliferation (CellTiter-Glo cell viability); format: cell-based; conditions: Homo sapiens
Protocol: as §1, with “HT-29” for “OVCAR-3”, “R273H” for “R248Q”, “a McCOY's 5A” for “an RPMI 1640”
as §2, with “for 120” for “for 72”, “each well,” for “each well ,”, “Table 2.” for “Table 1.”, “Table 2” for “Table 1”, “inhibiting HT-29” for “inhibiting OVCAR-3”

[4] = OVCAR-3 cells (TP53 R248Q mutation), 72 hours culture with compound, read-out: IC50
[5] = HT-29 cells (TP53 R273H mutation), 120 hours culture with compound, read-out: IC50

Compound	pIC50 [1, 4]	pIC50 ([2]; read-out: IC50)	pIC50 [3, 5]	pIC50 ([1]; OVCAR-3, 72 h)	pIC50 [2]	pIC50 ([3]; HT-29, 120 h)
CCS(=O)(=O)Nc1ccc(C(=O)Nc2ccc(-c3nnc[nH]3)c(N3CCC(F)(F)CC3)c2)c(N2CCC3(CC2)CC3)c1 [Example 37, N-(3-(4,4-difluoropiperidin-1-yl)-4-(4H-1,2,4-triazol-3-yl)phenyl)-4-(ethylsulfonamido)-2-(6-azaspiro[2.5]octan-6-yl)benz amide]	8.44	7.40	8.42	–	–	–
CCS(=O)(=O)Nc1ccc(C(=O)Nc2ccc(-c3ncn(C)n3)c(N3CCC(F)(F)CC3)c2)c(N2CCC3(CC2)CC3)c1 [Example 39, N-(3-(4,4-difluoropiperidin-1-yl)-4-(1-methyl-1H-1,2,4-triazol-3-yl)phenyl)-4-(ethylsulfon amido)-2-(6-azaspiro[2.5]octan-6-yl)benzamide]	8.42	6.91	9.59	–	–	–
CCS(=O)(=O)Nc1ccc(C(=O)Nc2ccc(-c3nnco3)c(N3CC(F)(F)C3)c2)c(N2CCC3(CC2)CC3)c1 [Example 49, N-(3-(3,3-difluoroazetidin-1-y 1)-4-(1,3,4-oxadiazol-2-yl)phenyl)-4-(ethylsulfonamido)-2-(6-azaspiro[2.5]octan-6-yl)benzamide]	7.90	7.15	8.02	–	–	–
CCS(=O)(=O)Nc1ccc(C(=O)Nc2ccc(-c3ncn(C)n3)c(OC3CC(F)(F)C3)c2)c(N2CCC3(CC2)CC3)c1 [Example 45, N-(3-(3,3-difluorocyclobutoxy)-4-(1-methyl-1H-1,2,4-triazol-3-yl)phenyl)-4-(ethylsulfonamido)-2-(6-azaspiro[2.5]octan-6-yl)benzamide]	8.60	6.99	8.21	–	–	–
CCS(=O)(=O)Nc1ccc(C(=O)Nc2ccc(-c3ncc[nH]3)c(N3CCC(F)(F)CC3)c2)c(N2CCC3(CC2)CC3)c1 [Example 25, N-(3-(4,4-difluoropiperidin-1-yl)-4-(1H-imidazol-2-yl)pheny 1)-4-(ethylsulfonamido)-2-(6-azaspiro[2.5]octan-6-yl)benzamide]	–	–	–	8.46	7.47	8.59
CCS(=O)(=O)Nc1ccc(C(=O)Nc2ccc(-c3ncccn3)c(N3CCC(F)(F)CC3)c2)c(N2CCC3(CC2)CC3)c1 [Example 14, N-(3-(4,4-difluoropiperidin-1-yl)-4-(pyrimidin-2-yl)phenyl)-4-(ethylsulfonamido)-2-(6-azaspiro[2.5]octan-6-yl)benzamide]	8.23	6.92	8.00	–	–	–
CCS(=O)(=O)Nc1ccc(C(=O)Nc2ccc(-c3nccn3C)c(N3CCC(F)(F)CC3)c2)c(N2CCC3(CC2)CC3)c1 [Example 26, N-(3-(4,4-difluoropiperidin-1-yl)-4-(1-methyl-1H-imidazol-2-yl)phenyl)-4-(ethylsulfonamido)-2-(6-azaspiro[2.5]octan-6-yl)benzamide]	–	6.97	7.51	–	–	–
CCS(=O)(=O)Nc1ccc(C(=O)Nc2ccc(-n3ccnc3)c(N3CCC(F)(F)CC3)c2)c(N2CCC3(CC2)CC3)c1 [Example 20, N-(3-(4,4-difluoropiperidin-1-yl)-4-(1H-imidazol-1-yl)pheny 1)-4-(ethylsulfonamido)-2-(6-azaspiro[2.5]octan-6-yl)benzamide]	8.07	7.29	8.22	–	–	–
CCS(=O)(=O)Nc1ccc(C(=O)Nc2ccc(-c3ccnnc3)c(N3CC(F)(F)C3)c2)c(N2CCC3(CC2)CC3)c1 [Example 19, N-(3-(3,3-difluoroazetidin-1-y 1)-4-(pyridazin-4-yl)phenyl)-4-(ethylsulfonamido)-2-(6-azaspiro[2.5]octan-6-yl)benzamide]	8.20	7.01	9.36	–	–	–

The remaining molecules from weak to strong by pIC50 ([2]; read-out: IC50), led by results:

pIC50 [1, 4]	pIC50 ([2]; read-out: IC50)	pIC50 [3, 5]	Compound	pIC50 ([1]; OVCAR-3, 72 h)	pIC50 [2]	pIC50 ([3]; HT-29, 120 h)
8.19	6.83	9.19	CCS(=O)(=O)Nc1ccc(C(=O)Nc2ccc(-c3ncccn3)c(N3CC(F)(F)C3)c2)c(N2CCC3(CC2)CC3)c1 [Example 18, N-(3-(3,3-difluoroazetidin-1-y 1)-4-(pyrimidin-2-yl)phenyl)-4-(ethylsulfonamido)-2-(6-azaspiro[2.5]octan-6-yl)benzamide]	–	–	–
8.43	6.83	9.82	CCS(=O)(=O)Nc1ccc(C(=O)Nc2ccc(-c3ncn(C)n3)c(N3CC(F)(F)C3)c2)c(N2CCC3(CC2)CC3)c1 [Example 46, N-(3-(3,3-difluoroazetidin-1-y 1)-4-(1-methyl-1H-l,2,4-triazo 1-3-yl)phenyl)-4-(ethylsulfonamido)-2-(6-azaspiro[2.5]octan-6-yl)benzamide]	–	–	–
8.23	7.08	7.94	CCS(=O)(=O)Nc1ccc(C(=O)Nc2ccc(-c3ccnnc3)c(N3CCC(F)(F)CC3)c2)c(N2CCC3(CC2)CC3)c1 [Example 13, N-(3-(4,4-difluoropiperidin-1-yl)-4-(pyridazin-4-yl)phenyl)-4-(ethylsulfonamido)-2-(6-azaspiro[2.5]octan-6-yl)benzamide]	–	–	–
7.80	7.10	7.74	CCS(=O)(=O)Nc1ccc(C(=O)Nc2ccc(-n3cnnn3)c(N3CCC(F)(F)CC3)c2)c(N2CCC3(CC2)CC3)c1 [Example 29, N-(3-(4,4-difluoropiperidin-1-yl)-4-(1H-tetrazol-1-yl)phenyl)-4-(ethylsulfonamido)-2-(6-azaspiro[2.5]octan-6-yl)benzamide]	–	–	–
7.88	7.10	8.10	CCS(=O)(=O)Nc1ccc(C(=O)Nc2ccc(-n3ncnn3)c(N3CCC(F)(F)CC3)c2)c(N2CCC3(CC2)CC3)c1 [Example 30, N-(3-(4,4-difluoropiperidin-1-yl)-4-(2H-tetrazol-2-yl)phenyl)-4-(ethylsulfonamido)-2-(6-azaspiro[2.5]octan-6-yl)benzamide]	–	–	–
8.43	7.16	8.33	O=C(Nc1ccc(-c2cccnn2)c(N2CCC(F)(F)CC2)c1)c1ccc(NS(=O)(=O)C2CC2)cc1N1CCC2(CC1)CC2 [Example 15, 4-(cyclopropanesulfonamido)-N-(3-(4,4-difluoropiperidin-1-yl)-4-(pyridazin-3-yl)phenyl)-2-(6-azaspiro[2.5]octan-6-yl)b enzamide]	–	–	–

— patent publication EP4748837A1, “AROMATIC AMIDE DERIVATIVE, AND PREPARATION METHOD THEREFOR AND USE THEREOF” (Zhejiang Hisun Pharmaceutical Co., Ltd., priority 2023, dated 2025)
